The test system of series [1] is nicotine-induced prostration in rats. The arrangement: species or system Sprague-Dawley male rats. The note with it: rat, in vivo.
The test system of series [2] is nicotine mortality in rats. Particulars: rat, in vivo.
In series [3] the test system is nicotine-induced seizures in rats. The note with it: rat, in vivo.
The target in series [4] is nicotine receptor, rat brain membranes. The format is binding.
Series [5] has the same target. The series is classed as binding. This is another data set of the same source.
The test system of series [6] is hypertensive action of nicotine in anesthetized rats. Particulars: rat, in vivo, iv.
The next series has as its system rats. The arrangement: species or system Sprague-Dawley male rats. The note with it: rat, in vivo.
Series [7] concerns hypertensive action of nicotine in anesthetized rats. Nature of the series: animal or person. Particulars: Rattus norvegicus, iv.
Series [8] relates to [3H]-nicotine binding sites in rat brain membranes.
In series [9] the target is nicotine receptor, rat brain membranes. The format is binding. Particulars: for IC50: read-out: [3H]-nicotine IC50.
For series [10] the target is unchanged. The format is binding. The note with it: for IC50: read-out: [3H]-MCC IC50.
The test system of another series is rats or mice. Particulars: in vivo; cited from earlier work.
In series [11] the test system is nicotinic cholinergic and nicotine-like binding sites in rat brain membranes.
Where [12] appears, read: read-out: 3H-Nicotine Binding IC50.

Entries after “also recorded” stand apart in the source; their conditions may differ. Like-named read-outs stand apart in the source and are kept apart here.

In the case of `C[N+](C)(C)CCOC(=O)c1ccccc1` [TMAE benzoate, benzoylcholine], the “effectiveness relative to the DMAE ester” value in series [1] came to 5 times. Besides, in series [2], the “% Antagonism of mortality” value turned out to be 63%, the “Mortality (dead/total)” value is on record as 3/10 and the “protection against nicotine mortality” value was found to be 63%. Besides, in series [3], the “% Antagonism of seizures” value is 78% and the “Seizures (rats with seizures/total)” value is on record as 1/8.
For the molecule `CN(C)C(=O)Oc1cccc([N+](C)(C)C)c1` [prostigmin], the “antagonist activity” value in series [1] was “inactive”.
As to DMAE naphthoate [DMAE napththoate], the IC50 in [4] (read-out: 3H-MCC Binding IC50) turned out to be 70 µM; in [5] (setting [12]) it was 80 µM.
N-benzylpiperidyl methylcarbamate: the IC50 in series [4] (read-out: 3H-MCC Binding IC50) and in [5] (setting [12]) was over 100 µM each time.
As to `CN(C)CCOC(=O)c1cccnc1` [DMAE nicotinate], in series [1], the “antagonism of nicotine-induced prostration / nicotine actions” value is “next in effectiveness; also recorded: antagonistic to the nicotine-induced prostration”.
The same measure, in the same setting: as for `C[N+](C)(C)CCOC(=O)Cc1ccccc1` [TMAE phenylacetate], the entry is “next in effectiveness”.
`CN1CCCC1c1cccnc1` (single isomer, unassigned; (-)) [(-)-nicotine]: the “Mortality (dead/total)” value in series [2] (ip, 3 mg/kg) was 8/10. In addition, the “symptoms” value in series [3] was “prostration followed by tremors, fasciculations, cyanosis and labored breathing, and myoclonic seizures”. For the same molecule, the “Seizures (rats with seizures/total)” value in series [3] (1.5 mg/kg) is 10/10. Also, in [6], the “increase in systolic blood pressure” value was 25%. Moreover, in the series on rats, the “action on prostration” value is “agonists”; the “behavioral / respiratory effects” value was “deep diaphragmatic breathing and a decreased respiratory rate”.
As to TMAE naphthoate [TMAE napththoate], the figures for the IC50 in series [4] (read-out: 3H-MCC Binding IC50) and in series [5] (setting [12]) were 5 µM and 9 µM, respectively.
`CCN(CC)CCOC(=O)c1ccc(N)cc1` [procaine]: in [1], the “antagonism of nicotine-induced prostration / nicotine actions” value is recorded as “effectively block nicotine-induced prostration” and the “antagonist activity” value is “antagonists”.
For `CN(C)CCOC(N)=O` [DMAE carbamate], in the series on rats, the “behavioral effect” value is listed as “only a similar effect”.
On to `C[N+](C)(C)CCOC(=O)C1CCCCC1` [TMAE cyclohexylcarboxylate, choline ester of cyclohexylcarboxylic acid], for which the “protection against nicotine mortality” value in series [2] worked out at 66%. Also, in series [3], the “% Antagonism of seizures” value amounted to 78%. Besides, the “Seizures (rats with seizures/total)” value in [3] is 1/8. Also, the ED100 in series [7] (read-out: Antagonistic dose (±s.d.) to completely block elevation in systolic blood pressure) came out at 5 ± 1.5 mg/kg; in series [7] (read-out: dose completely reversing increase in systolic blood pressure) it was 1.5 mg/kg.
`COC(=O)[C@H]1[C@@H](OC(=O)c2ccccc2)C[C@@H]2CC[C@H]1N2C` [cocaine]: in series [1], the “antagonism of nicotine-induced prostration / nicotine actions” value is recorded as “effectively block nicotine-induced prostration” and the “antagonist activity” value is “inactive”.
Turning to `C[N+](C)(C)CCOC(=O)Nc1ccccc1` [TMAE phenylcarbamate], the “antagonism of nicotine-induced prostration / nicotine actions” value in series [1] is “next in effectiveness”. Besides, in [2], the “% Antagonism of mortality” value is listed as 50%, the “Mortality (dead/total)” value was 4/10 and the “protection against nicotine mortality” value is given as 50%. In addition, in series [3], the “% Antagonism of seizures” value worked out at 89%, the “Seizures (rats with seizures/total)” value is 1/9 and the “protection against seizures” value is given as “almost complete protection”.
With `CN1CCCC1c1cccnc1` (single isomer, unassigned; (-)) [[^3 H]-nicotine, (-)-[^3 H]-nicotine], the “Bmax, higher affinity site” value in series [8] amounted to 5e-15 mol/mg.
As for `CN(C)CCOC(=O)c1ccccc1` [DMAE benzoate, dimethylaminoethyl benzoate], in series [3], the “% Antagonism of seizures” value was determined as 45% and the “Seizures (rats with seizures/total)” value is on record as 5/9.
In the case of `CN(C)CCOC(=O)C1CCCCC1` [DMAE cyclohexylcarboxylate, dimethylaminoethyl cyclohexylcarboxylate], in [3], the “% Antagonism of seizures” value stood at 50%, the “Seizures (rats with seizures/total)” value is listed as 4/8 and the “seizures” value is recorded as “about half of the rats exhibited seizures”.
α-bungarotoxin: in [9], the equilibrium dissociation constant (Kd) is over 100 µM and the IC50 is over 100 µM. The IC50 in series [10] is over 100 µM.
Take `C[N+](C)(C)CCOC(=O)CCC(=O)OCC[N+](C)(C)C` [TMAE succinate, succinylcholine]: the IC50 is 0.7 µM in series [4] (read-out: 3H-MCC Binding IC50), about 50 µM in [4] (read-out: IC50 for 3H-MCC), 0.8 µM in series [5] (setting [12]) and about 50 µM in series [5] (read-out: IC50 for 3H-nicotine).
Regarding `C[N+](C)(C)CCOC(=S)Nc1ccccc1` [TMAE phenylthiocarbamate], in [1], the “antagonism of nicotine-induced prostration / nicotine actions” value was “next in effectiveness”. In series [2], the “% Antagonism of mortality” value is reported as 63%, the “Mortality (dead/total)” value was 3/10 and the “protection against nicotine mortality” value stood at 63%.
Take `CNC(=O)OC1CCN(Cc2ccccc2)CC1` [N-benzyl-4-piperdyl methylcarbamate]: the IC50 in series [4] (read-out: 3H-MCC Binding IC50) and in [5] (setting [12]) was over 100 µM each time.
Turning to `C[N+](C)(C)CCCCCC[N+](C)(C)C` [hexamethonium], in series [9], the Kd is over 100 µM and the concentration for half-maximal inhibition (IC50) was over 100 µM. Moreover, the IC50 in series [10] is over 100 µM.
For `C[N+]1(C)CCCC1c1cccnc1` (stereo not shown) [N'-methyl nicotonium], in the series on rats or mice, the “seizures and mortality relative to nicotine” value is “more potent than nicotine in producing seizures and mortality”.
On to `CCN(CC)CC(=O)Nc1c(C)cccc1C` [lidocaine], for which the “antagonist activity” value in series [1] is “inactive”.
The same measure, in the same setting: next, `CNC(=O)Oc1ccc2c(c1)[C@]1(C)CCN(C)[C@@H]1N2C` [physostigmin]: “inactive”.
On to `CN1[C@@H](CC(=O)c2ccccc2)CCC[C@H]1C[C@H](O)c1ccccc1` [α-lobeline], for which, in [1], the “antagonist activity” value was “most effective antagonist in blocking the prostration, seizures, and mortality”; the “dose blocking nicotine-induced prostration” value was determined as 10 nmol. Moreover, in series [2], the “% Antagonism of mortality” value came to 75%, the “Mortality (dead/total)” value was 2/10 and the “reduction of the mortality” value turned out to be 75%. For the same molecule, in series [3], the “% Antagonism of seizures” value was 0/8, the “Seizures (rats with seizures/total)” value is listed as 1/8 and the “protection against seizures” value is recorded as “complete protection against seizures”. For the same molecule, in series [5], the “binding affinity” value is “even greater affinity than (-)-nicotine; also recorded: very high affinity for brain nicotine receptors”.
Turning to `CN(C)c1cccnc1` [3-dimethylaminopyridine], the “action on prostration” value in the series on rats is given as “agonists”.
As to `CCN1CCCC1c1cccnc1` (stereo not shown) [N'-ethyl nornicotine], the IC50 in series [4] (read-out: 3H-MCC Binding IC50) and in series [10] was 0.1 µM throughout. Also, the “decrease in affinity versus nicotine” value in [9] and in series [10] was 3 fold in each case.
Consider `CCCN1CCCC1c1cccnc1` (stereo not shown) [N'-propyl nornicotine], for which the “decrease in affinity versus nicotine” value in [9] and in [10] was 200 fold each time.
Take `CN1[C@@H]2CC[C@H]1C[C@@H](OC(=O)C(CO)c1ccccc1)C2` (stereo partly shown) [atropine]: the “protection against nicotine mortality” value in series [2] is listed as “ineffective”. Further, in series [3], the “% Antagonism of seizures” value worked out at 0% and the “Seizures (rats with seizures/total)” value is on record as 6/6.
As for `[3H]C([3H])([3H])[N+](C)(C)CCOC(=O)NC` [[^3 H]-MCC, [^3 H]-methylcarbamyl choline], the “Bmax (Scatchard analysis)” value in series [11] is 4.0×10^-14 moles/mg protein. In series [11] (brain membranes), the “rate constant for association” value stood at 300000 M⁻¹ s⁻¹ and the “rate constant for dissociation” value is 0.001 s⁻¹.

(Values after patent publication US4966916A (priority 1989, dated 1990).)
